Test results reported in patent US20180170941A1 (priority 2016, published 2018).

Legend:
aged-impaired (AI) rats [1] = experiment: Morris water maze behavioral task, ICV infusion; type: in vivo, rat; conditions: 100 μg ICV
Text: Cognitively impaired aged rats were implanted unilaterally with a cannula into the lateral ventricle. Stereotaxic coordinates were 1.0 mm posterior to bregma, 1.5 mm lateral to midline, and 3.5 mm ventral to the skull surface. After about a week of recovery, the rats were pre-trained in a water maze for 2 days (6 trials per day) to locate a submerged escape platform hidden underneath the surface of the pool, in which the escape platform location varied from day to day. No intracerebroventricular (ICY) infusion was given during pre-training.
After pre-training, rats received ICV infusion of either 100 μg 6,6 dimethyl-3-(3-hydroxypropypthio-1-(thiazol-2-yl)-6,7-dihydro-2-benzothiophen-4(5H)-one (n=6) in 5 μl DMSO or vehicle DMSO (n=5) 40 min prior to water maze training and testing. Training consisted of 8 trials per day for 2 days where the hidden escape platform remained in the same location. Rats were given 60 seconds to locate the platform with a 60 seconds inter-trial interval. The rats were given a probe test (120 seconds) 24 hr. after the end of training where the escape platform was removed. During the training, there were 4 blocks, where each block had 4 training trials.
During a test trial 24 hr. after training, the escape platform was removed. The search/swim pattern of the rats was used to measure whether the rats remember where the escape platform was located during pre-trial training in order to test for the long-term memory of the rats. In this trial, “target annulus” is a designated area 1.5 times the size of the escape platform around the area where the platform was located during pre-trial training. “Opposite annulus” is a control area of the same size as the size of the target annulus, which is located opposite to the target annulus in the pool. If the rats had good long term memory, they would tend to search in the area surrounding the location where the platform was during the pre-trial training (i.e., the “target” annulus; and not the “opposite” annulus). “Time in annulus” is the amount of time in seconds that the rat spent in the target or opposite annulus area. “Number (#) of crossings” in annulus is the number of times the rat swam across the target or opposite annulus area.

MAM-treated rats = conditions: cited from earlier work
aged-impaired (AI) rats [2] = experiment: Radial Arm Maze (RAM) behavioral task, spatial memory retention; type: in vivo, rat
Experimental: The effects of methyl 3,5-diphenylpyridazine-4-carboxylate on the in vivo spatial memory retention of aged-impaired (AI) rats were assessed in a Radial Arm Maze (RAM) behavioral task using vehicle control and four different dosage levels of methyl 3,5-diphenylpyridazine-4-carboxylate (0.1 mg/kg, 0.3 mg/kg, 1 mg/kg and 3 mg/kg, ip). RAM behavioral tasks were performed on eight AI rats. All five treatment conditions (vehicle and four dosage levels) were tested on all eight rats.
The RAM apparatus used consisted of eight equidistantly-spaced arms. An elevated maze arm (7 cm width×75 cm length) projected from each facet of an octagonal center platform (30 cm diameter, 51.5 cm height). Clear side walls on the arms were 10 cm high and were angled at 65° to form a trough. A food well (4 cm diameter, 2 cm deep) was located at the distal end of each arm. Froot Loops™ (Kellogg Company) were used as rewards. Blocks constructed of Plexiglas™ (30 cm height×12 cm width) could be positioned to prevent entry to any arm. Numerous extra maze cues surrounding the apparatus were also provided.
The AI rats were initially subjected to a pre-training test (Chappell et al. Neuropharmacology 37: 481-487, 1998). […]

GABAA α5 receptor = molecular target: T1, GABAA α5 receptor (Rattus norvegicus, UniProt P18508+P19969); experiment: GABAA α5 receptor occupancy with Ro 15-4513 tracer, hippocampus vs cerebellum; type: in vivo, Long Evans rats; conditions: for Ro 15-4513 binding in hippocampus / cerebellum levels (binding) of Ro 15-4513: 0.01-10 mg/kg
T1 construct: from tissue
T1 sequence (P19969 32-464 limits assumed): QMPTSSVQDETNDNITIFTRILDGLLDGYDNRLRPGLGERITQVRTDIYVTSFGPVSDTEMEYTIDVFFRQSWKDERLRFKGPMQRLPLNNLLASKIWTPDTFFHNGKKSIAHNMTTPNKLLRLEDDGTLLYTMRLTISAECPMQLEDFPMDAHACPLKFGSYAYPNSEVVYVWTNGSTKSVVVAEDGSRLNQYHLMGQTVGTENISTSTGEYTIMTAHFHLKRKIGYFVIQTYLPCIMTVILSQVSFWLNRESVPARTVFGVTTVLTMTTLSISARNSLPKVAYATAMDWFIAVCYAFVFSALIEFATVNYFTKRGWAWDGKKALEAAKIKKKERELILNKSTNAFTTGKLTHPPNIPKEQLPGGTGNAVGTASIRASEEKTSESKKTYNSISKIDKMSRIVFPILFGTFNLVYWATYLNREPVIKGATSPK
T1 sequence (P18508 39-466): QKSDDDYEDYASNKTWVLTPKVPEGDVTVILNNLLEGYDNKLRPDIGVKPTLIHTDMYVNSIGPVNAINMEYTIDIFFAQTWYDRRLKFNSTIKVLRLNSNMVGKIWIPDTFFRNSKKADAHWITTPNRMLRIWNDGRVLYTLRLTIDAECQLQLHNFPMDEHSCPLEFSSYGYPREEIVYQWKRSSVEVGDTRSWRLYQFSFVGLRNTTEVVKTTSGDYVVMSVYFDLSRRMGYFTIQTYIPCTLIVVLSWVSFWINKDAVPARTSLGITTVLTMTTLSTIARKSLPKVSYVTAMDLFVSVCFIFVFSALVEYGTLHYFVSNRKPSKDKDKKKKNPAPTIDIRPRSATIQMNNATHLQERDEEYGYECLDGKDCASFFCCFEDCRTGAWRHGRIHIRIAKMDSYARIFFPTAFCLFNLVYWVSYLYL
Experimental: Food and water were available ad libitum.
The (100 μl) supernatant solution was diluted by […] of sterile water (pH 6.5).

[3] = i.v., listed as Methyl 3,5-diphenylpyridazine-4-carboxylate

SMILES: CC1(C)CC(=O)c2c(SCCCO)sc(-c3nccs3)c2C1 [6,6 dimethyl-3-(3-hydroxypropyl)thio-1-(thiazol-2-yl)-6,7-dihydro-2-benzothiophen-4(5H)-one]
- time to find the escape platform, block 1 (beginning of training) (aged-impaired (AI) rats [1]): about 24 seconds
- time to find the escape platform, block 4 (end of training) (aged-impaired (AI) rats [1]): about 9.6 seconds
- number of crossings of target annulus compared with opposite annulus, probe test (aged-impaired (AI) rats [1]; 24 hr. after training): more often
- time in target annulus compared with opposite annulus, probe test (aged-impaired (AI) rats [1]; 24 hr. after training): significantly more time

SMILES: C#Cc1ccc2c(c1)C(c1ccccc1F)=N[C@H](C)c1c(C(=O)OCC)ncn1-2 [SH-053-2′F-R—CH3]
- increased locomotor response to amphetamine in MAM-treated rats (MAM-treated rats; rat, in vivo): reduced
- number of spontaneously active DA neurons in the ventral tegmental area (VTA) of MAM rats (MAM-treated rats; systemic or infused into the ventral HPC): to levels observed in saline-treated rats

SMILES: CCOC(=O)c1ncn2c1Cn1c(C)nnc1-c1cc(OC)ccc1-2 [ethyl 3-methoxy-7-methyl-9H-benzo[f]imidazo[1,5-a][1,2,4]tri]
- memory performance relative to vehicle control (aged-impaired (AI) rats [2]; 3 mg/kg, four-hour delay, p=0.004 or p=0.018): significantly improved memory performance
- Ro 15-4513 binding in hippocampus (GABAA α5 receptor; i.v.): reduced
- cerebellum levels (binding) of Ro 15-4513 (GABAA α5 receptor; i.v.): without affecting

SMILES: COC(=O)c1c(-c2ccccc2)cnnc1-c1ccccc1 [methyl 3,5-diphenylpyridazine-4-carboxylate]
- memory performance relative to vehicle control (aged-impaired (AI) rats [2]; 3 mg/kg ip, two-hour delay, t(7)=4.233, p=0.004): significantly improved memory performance
- Ro 15-4513 binding in hippocampus (GABAA α5 receptor; i.v.): blocked
- cerebellum levels (binding) of Ro 15-4513 (GABAA α5 receptor; i.v.): did not affect
- Ro 15-4513 binding in hippocampus (GABAA α5 receptor; [3]): dose-dependently reduced
- cerebellum levels (binding) of Ro 15-4513 (GABAA α5 receptor; [3]): without affecting
- RO required for cognitive efficacy in this model (GABAA α5 receptor; from exposure in aged rats at 3 mg/kg, i.p.): 30-40%
- GABAA α5 receptors occupied at exposures behaviorally active in aged-impaired rats (GABAA α5 receptor; hippocampus exposure-occupancy relationship (FIG. 4)): about 32%
- ED50 of receptor occupancy, ratio method (GABAA α5 receptor; i.v.): 1.8 mg/kg
